In publication PMC9458111, “New 1,2,3-Triazole-Coumarin-Glycoside Hybrids and Their 1,2,4-Triazolyl Thioglycoside Analogs Targeting Mitochondria Apoptotic Pathway: Synthesis, Anticancer Activity and Docking Simulation” (Molecules, 2022):

What was measured:
[1] = test system: human colorectal adenocarcinoma (Caco-2 cell lines); assay: MTT cytotoxicity assay, Caco-2; format: cell-based; conditions: Caco-2, 48 h
Procedure: (§1) The synthesized compounds were studied for their cytotoxic activity against several human cancer cell lines, namely human osteosarcoma (HOS cell lines), human breast adenocarcinoma (MDA-MB-231 cell lines), human breast cancer (MCF-7 cell lines), human colorectal adenocarcinoma (Caco-2 cell lines) and human colon cell line (HCT-116 cell lines) using MTT assay at 100 µM, and the results were outlined as shown in Table 1.
(§2) Human osteosarcoma (HOS cell line), human breast adenocarcinoma (MDA-MB-231cell lines), human breast cancer (MCF-7 cell lines), human colorectal adenocarcinoma (Caco2 cell lines), human colon cell line (HCT-116 cell lines), normal human cell lines (BJ-1), and “a telomerase immortalized normal foreskin fibroblast cell line” were obtained from Karolinska Center, Department of Oncology and Pathology, Karolinska Institute and Hospital, Stockholm, Sweden.
(§3) Following culturing for 10 days, the cells were seeded at concentration of 10 × 10^3 cells per well in case of MCF-7 & MDA, 20 × 10^3 cells/well in a fresh complete growth medium in case of HCT-116, Caco2, & HOS and 40 × 10^3 cells/well in case of BJ-1 at 37 °C for 24 h in a water jacketed carbon dioxide incubator. After 48 h’ incubation, the medium was aspirated, and then 40 μl MTT salt (2.5 mg/mL) were added for a further 4 h; 200 μl 10% sodium dodecyl sulphate (SDS) in deionized water were added to each well and incubated overnight at 37 °C. The absorbance was measured at 595 nm with reference 690 nm. Doxorubicin was used as positive control, and 0.5% DMSO was used as negative control. IC50 values were calculated, using a probit analysis, and by utilizing the SPSS computer program (SPSS for Windows, statistical analysis software package/version 9/1989 SPSS Inc., Chicago, IL, USA).

[2] = molecular target: CDK-2/cyclin A2 (Homo sapiens, UniProt P24941); assay: CDK-2/cyclin A2 inhibitory assay (ELISA); format: biochemical; conditions: mean of three values; read-out: IC50 (Mean ± SEM), CDK-2/Cyclin A2
Procedure: Assay of CDK-2/cyclin A2 was achieved through ELISA using an affinity tag labeled capture antibody. […] After the incubation period, the unrestrained substance has been discarded, and the wells have been washed. The added TMB (3,3′,5,5′-tetramethylbenzidine) substrate was prompted by Horseradish peroxidase (HRP), and blue coloration appeared. This reaction was stopped through the addition of stop solution to complete changing in colour from blue to yellow. The created signals were equivalent to the quantity of bound analyte, and the Robonik P2000 ELISA reader was used to record the intensity at a certain wavelength (450 nm).

[3] = test system: human breast adenocarcinoma (MDA-MB-231 cell lines); assay: MTT cytotoxicity assay, MDA-MB-231; format: cell-based; conditions: MDA-MB-231, 48 h
Procedure: as §1, §2, §3

[4] = test system: Bax protein in MCF-7 cells; assay: Bax protein level in MCF-7 cells (ELISA); format: cell-based, human; conditions: MCF-7, 19.6 µM (IC50), 24 h
Procedure: (§4) Referring to the cytotoxicity results, the 1,2,4-triazole-thioglycoside derivative 10 has a mitochondria-apoptotic effect on breast cancer cells through reduction of MTT by a mitochondrial enzyme. […] Along with that, such derivative elevated the release of cytochrome c into the cytosol in the treated MCF-7, in comparison with untreated one from 0.176 to 0.766 ng/ml due to disturbing mitochondrial outer membrane permeability (MOMP). In addition, the target 10 achieved better results than those afforded by from the standard 5-fluorouracil. Moreover, the level of caspase-7 was elevated in treated cells with the target 10 rather than that with 5-fluorouracil or the untreated cells as shown in Figure 4.
Bax protein levels picogram per ml (Pg/mL) were evaluated according to previously reported procedure. Monoclonal antibody, specific to Bax captured on the plate, was added. After incubation, Streptavidin conjugated to Horseradish peroxidase was added. The reaction was then terminated by adding acid and optical density of the color produced measured at 450 nm.
(§5) Figure 4 Levels of Bax, Bcl-2, Bax/Bcl-2 ratio, cytochrome c and caspase-7 protein in MCF-7 cells after treatment with compound 10 and the standard drug for 24 h compared with the untreated one, 5-flu: 5-fluorouracil as a reference drug.

[5] = test system: human colon cell line (HCT-116 cell lines); assay: MTT cytotoxicity assay, HCT-116; format: cell-based; conditions: HCT-116, 48 h
Procedure: as §1, §2, §3

[6] = test system: human breast cancer (MCF-7 cell lines); assay: MTT cytotoxicity assay, MCF-7; format: cell-based
Procedure: as §1, §2, §3

[7] = test system: human osteosarcoma (HOS cell lines); assay: MTT cytotoxicity assay, HOS; format: cell-based; conditions: 48 h
Procedure: as §1, §2, §3

[8] = molecular target: VEGFR-2 (Homo sapiens, UniProt P35968); assay: VEGFR-2 inhibitory assay (ELISA); format: biochemical; conditions: mean of three values; read-out: IC50 (Mean ± SEM), VEGFR-2
Procedure: The cells were harvested, and the homogenates were prepared in saline using a tight pestle homogenizer until complete cell disruption. The kit uses a double-antibody sandwich enzyme-linked immunosorbent assay (ELISA) to determine the level of human VEGFR-2 in samples. A monoclonal antibody for VEGFR-2 was pre-coated onto 96-well plates. The test samples are added to the wells, and a biotinylated detection polyclonal antibody from goat specific for VEGFR-2 was added subsequently followed by washing with PBS buffer. Avidin-Biotin-Peroxidase complex was added, and the unbound conjugates were washed away with PBS buffer. HRP substrate TMB was used to visualize HRP enzymatic reaction. TMB was catalyzed by HRP to produce a blue color product that changed into yellow after adding acidic stop solution. The density of yellow color is proportional to the human VEGFR-2 amount of the sample captured in the plate. The chroma of color and the concentration of the human VEGFR-2 of the samples were positively correlated, and the optical density was determined at 450 nm. The level of human VEGFR-2 in samples was calculated (pg/ml) as duplicate determinations from the standard curve. Percent inhibition was calculated in comparison to control untreated cells.

[9] = test system: caspase-7 in MCF-7 cells; assay: Caspase-7 level in MCF-7 cells (ELISA); format: cell-based, human; conditions: MCF-7, 24 h, versus 5-fluorouracil or untreated cells
Procedure: as §4
The micro-ELISA plate was provided in this kit pre-coated with a CASP-7-specific antibody. A biotinylated CASP-7 antibody and Avidin–horseradish peroxidase (HRP) conjugate were added. Get rid of the excess components. The substrate solution was added. Wells that contain CASP-7, biotinylated detection antibody, and Avidin-HRP conjugate will appear blue in color. The color turns yellow following the addition of sulfuric acid solution. The optical density (OD) was measured at a wavelength of 450 nm ±2 nm. […]

[10] = test system: cytochrome c in MCF-7 cells; assay: Cytochrome c release in MCF-7 cells (ELISA); format: cell-based, human; conditions: MCF-7, 19.6 µM (IC50), 24 h; untreated 0.176
Procedure: as §4
Cytochrome c specific antibodies have been precoated onto 96-well plates. Cytochrome c were analyzed by enzyme-linked immunosorbent assays (ELISAs) using commercial kits (ab119521; Abcam, Cambridge, MA, USA). The optimal dilutions were determined, and ELISAs were performed according to the manufacturer’s instructions.
as §5

Sequence of VEGFR-2 (P35968 20-1356): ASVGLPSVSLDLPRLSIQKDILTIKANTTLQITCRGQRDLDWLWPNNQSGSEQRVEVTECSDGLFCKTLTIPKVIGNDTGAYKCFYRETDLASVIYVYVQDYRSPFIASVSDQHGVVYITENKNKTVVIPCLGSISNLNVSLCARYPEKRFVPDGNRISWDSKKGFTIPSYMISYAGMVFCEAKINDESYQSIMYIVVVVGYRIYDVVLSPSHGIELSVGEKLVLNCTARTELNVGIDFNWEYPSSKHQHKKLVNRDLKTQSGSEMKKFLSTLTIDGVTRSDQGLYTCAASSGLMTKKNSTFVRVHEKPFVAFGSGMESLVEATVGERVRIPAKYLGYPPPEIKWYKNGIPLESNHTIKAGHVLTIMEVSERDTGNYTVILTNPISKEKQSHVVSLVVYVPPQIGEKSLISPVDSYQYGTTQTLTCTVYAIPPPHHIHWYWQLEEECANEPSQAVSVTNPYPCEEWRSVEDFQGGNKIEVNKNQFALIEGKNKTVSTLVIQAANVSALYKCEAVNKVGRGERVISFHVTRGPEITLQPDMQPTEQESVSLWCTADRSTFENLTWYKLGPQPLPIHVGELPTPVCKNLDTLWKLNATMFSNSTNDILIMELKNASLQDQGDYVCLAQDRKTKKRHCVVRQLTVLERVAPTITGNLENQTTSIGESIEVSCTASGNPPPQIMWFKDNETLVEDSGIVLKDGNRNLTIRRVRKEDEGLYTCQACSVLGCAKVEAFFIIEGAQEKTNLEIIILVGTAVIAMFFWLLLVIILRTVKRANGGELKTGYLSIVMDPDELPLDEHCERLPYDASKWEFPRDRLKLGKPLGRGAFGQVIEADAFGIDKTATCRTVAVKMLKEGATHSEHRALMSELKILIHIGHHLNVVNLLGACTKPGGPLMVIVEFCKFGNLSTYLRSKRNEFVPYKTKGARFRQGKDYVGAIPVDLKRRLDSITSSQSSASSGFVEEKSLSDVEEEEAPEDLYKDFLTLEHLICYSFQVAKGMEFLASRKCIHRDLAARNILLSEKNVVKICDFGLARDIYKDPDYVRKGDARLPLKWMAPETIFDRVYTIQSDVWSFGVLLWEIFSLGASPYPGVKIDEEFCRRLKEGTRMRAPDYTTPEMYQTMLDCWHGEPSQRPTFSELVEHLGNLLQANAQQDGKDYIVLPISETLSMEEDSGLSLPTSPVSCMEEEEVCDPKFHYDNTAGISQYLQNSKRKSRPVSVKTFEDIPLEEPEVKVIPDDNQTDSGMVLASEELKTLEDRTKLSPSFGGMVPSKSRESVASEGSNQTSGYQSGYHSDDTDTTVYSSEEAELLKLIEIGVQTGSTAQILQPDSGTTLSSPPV

Question: What does the source list for `CCn1c(COc2ccc3c(-c4ccccc4)cc(=O)oc3c2)nnc1SC1OCC(O)C(O)C1O` [Compound 10, 4-Phenyl-7-((4-ethyl-5-(1-(β-D-xylopyranosyl)thio)-4H-1,2,4-triazol-3-yl)meth-oxy)-2H-chromen-2-one]?
Answer: cytotoxicity at 100 µM [1]: 0.7 ± 0.003%; IC50 [2]: 150 nM; cytotoxicity at 100 µM [3]: 20.6 ± 0.5%; Upregulation of pro-apoptotic Bax protein versus untreated cells [4]: 4 folds; cytotoxicity at 100 µM [5]: 27.2 ± 0.7%; cytotoxicity at 100 µM ([6]; MCF7, 48 h): 66.3 ± 1%; IC50 ([6]; MCF7, MTT, 0.78–100 µM, ± SD): 19.6 ± 0.7 µM; cytotoxicity at 100 µM [7]: 5.3 ± 0.2%; IC50 [8]: 790 ± 140 nM; Level of caspase-7 (in words) [9]: elevated; Cytochrome c released into the cytosol [10]: 0.766 ng/mL
